In assay [1] the target is estrogen receptor α in MCF7 cells (Homo sapiens (Human), UniProt P03372). Nature of the assay: Estrogen Receptor (ER) Degradation Assay (In-Cell Western). The conditions noted are these: for IC50: 24 hours, In-Cell Western; for % Estrogen Receptor Remaining: vehicle set to 100%. It counts as cell-based. The protocol:
A screening strategy was implemented utilizing an In-Cell Western assay to measure their ability to degrade the estrogen receptor in vitro. MCF7 cells, which are estrogen receptor positive, were plated at a cell density of […] into black walled clear bottom 96-well plates. Cells were incubated in phenol red free Dulbecco's Modified Eagle Media (DMEM) supplemented with 8% charcoal-stripped fetal bovine calf serum for 24 hours in a humidified 37° C. incubator. Concentrated stock compounds were diluted to 10× in complete media. Compounds were added to the plated cells in a dose-dependent manner ranging from 1E-12 to 1E-05 M and incubated for an additional 24 hours at 37° C. Culture medium was removed from the culture plates by gentle inversion. Cells were fixed in 4% paraformaldehyde in 1× phosphate buffered saline-calcium magnesium free (PBS-CMF) for 15 minutes at room temperature, washed 3 times for 5 minutes each in 1×PBS-CMF. Cells were permeabilized in immunofluorescence (IF) blocking buffer (Cell Signaling #12411) containing 0.3% Triton X100. Cells were washed 3 times for 5 minutes each in 1×PBS-CMF and incubated in estrogen receptor α (D6R2W) rabbit primary antibody (Cell Signaling #13258) diluted 1:300 in IF antibody dilution buffer (Cell Signaling #12378). Cells were washed 3 times for 5 minutes each in 1×PBS-CMF and stained with goat anti-rabbit (Biotium #CF770) secondary antibody diluted 1:2000 in IF antibody dilution buffer and normalizing stain CellTag 700 diluted 1:500 (Licor #926-41090). ER protein expression was assessed by the Licor Odyssey CLx imaging system using Image Studio v5.2. Data is processed utilizing GraphPad Prism 7 by subtracting background from the vehicle and setting the vehicle to 100% ER activity, followed by comparing treated samples to vehicle. This procedure was used to produce the graph in FIG. 2, FIG. 3, FIG. 4, FIG. 5, FIG. 6, FIG. 7, and FIG. 8.
(§1) In the below table for the Estrogen Receptor Degradation Assay and the Human ERα Reporter Assay: […]

Assay [2] has as its target human estrogen receptor (ERα) (Homo sapiens (Human), UniProt P03372). Kind of assay: Human ERα Reporter Assay (Indigo Biosciences). Particulars: antagonist mode, 17β-estradiol 8E-10 M, 24 hours. It counts as cell-based. On the procedure: All reagents used in this assay was supplied in the Human ERα Reporter Assay by Indigo Biosciences # IB00401. In an effort to screen selective estrogen receptor degraders (SERDs), the Human ERα Reporter Assay, supplied by Indigo Biosciences, was utilized to quantify antagonist functional activity against the human estrogen receptor. Reporter cells were thawed at 37° C. and added to pre-warmed to 37° C. cell recovery medium (CRM). Stock concentration of 17β-estradiol was serially diluted in CRM. Diluted 17β-estradiol was added to CRM containing reporter cells resulting in a working concentration of 1.6 nM (2×). Cells plus 17β-estradiol were dispensed in a kit-supplied white walled 96-well plate. Concentrated stocks of test compounds were diluted to 2× working concentrations in cell screening medium (CSM). 2× concentrated compounds were added to the plated cells in a dose-dependent manner resulting in a final concentration range of 1E-11 to 1E-5 M and a final 17β-estradiol concentration of 8E-10 M. Assay plates were incubated for 24 hours in a humidified 37° C. incubator. Culture medium was removed from the assay plates by inversion. Detection substrate and buffer was warmed to room temperature, mixed thoroughly, and immediately added to the assay plates. Assay plates were incubated for 15 minutes at room temperature protected from light. Luminescence was measured in a Synergy HTX luminescence plate reader. Data is processed utilizing GraphPad Prism 7 by graphing the relative light units measured at each compound concentration. This procedure was used to produce the graph in FIG. 1, FIG. 9, FIG. 10, FIG. 11, FIG. 12, FIG. 13, and FIG. 14.
as §1
(Reporter assays use an easily measured gene product as a stand-in for the process of interest.)

Where only a bound is given, the exact number is not on record here.

Sequence of estrogen receptor α in MCF7 cells (P03372 whole entry): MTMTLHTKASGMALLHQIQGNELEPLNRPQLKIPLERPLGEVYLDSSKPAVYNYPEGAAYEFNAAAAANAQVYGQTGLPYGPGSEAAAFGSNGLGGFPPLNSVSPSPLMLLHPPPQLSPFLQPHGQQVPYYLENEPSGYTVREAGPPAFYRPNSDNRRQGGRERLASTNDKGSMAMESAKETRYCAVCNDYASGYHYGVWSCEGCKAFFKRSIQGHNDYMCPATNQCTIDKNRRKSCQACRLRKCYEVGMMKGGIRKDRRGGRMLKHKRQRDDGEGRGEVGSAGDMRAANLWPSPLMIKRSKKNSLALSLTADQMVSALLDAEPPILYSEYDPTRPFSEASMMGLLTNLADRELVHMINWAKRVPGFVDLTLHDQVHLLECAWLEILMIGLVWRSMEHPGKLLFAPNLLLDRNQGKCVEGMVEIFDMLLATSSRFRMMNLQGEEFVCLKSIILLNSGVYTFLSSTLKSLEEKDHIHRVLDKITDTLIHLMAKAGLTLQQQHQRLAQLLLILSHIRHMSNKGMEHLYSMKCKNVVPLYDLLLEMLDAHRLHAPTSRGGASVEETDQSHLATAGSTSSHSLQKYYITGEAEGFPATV
Sequence of human estrogen receptor (ERα) (P03372 whole entry): as above

For orientation: IC50 means the point on the concentration scale where inhibition reaches its midpoint. For the molecule `CNCc1ccc(Oc2c(C(=O)c3c(C)cc(F)cc3C)sc3cc(O)ccc23)cc1` [Compound 113, (4-fluoro-2,6-dimethylphenyl)(6-hydroxy-3-(4-((methylamino)methyl)phenoxy)benzo[b]thiophen-2-yl)methanone], the IC50 in assay [1] and in assay [2] was below 1000 nM throughout. The “% Estrogen Receptor Remaining” value in assay [1] is reported as “*** (*** denotes 41-70% Estrogen Receptor remaining)”.

Turning to `Cc1cc(F)cc(C)c1C(=O)c1sc2cc(O)ccc2c1-c1ccc(OCCN2CC(CF)C2)cc1` [Compound 120, (4-f1uoro-2,6-dimethylphenyl)(3-(4-(2-(3-(fluoromethyl)azetidin-1-yl)ethoxy)phenyl)-6-hydroxybenzo[b]thiophen-2-yl)methanone], in assay [1], the IC50 was below 1000 nM and the “% Estrogen Receptor Remaining” value is “*** (*** denotes 41-70% Estrogen Receptor remaining)”. Besides, the IC50 in assay [2] is below 50000 nM.

`Cc1cc(F)cc(C)c1C(=O)c1sc2cc(O)ccc2c1Oc1ccc(CN)cc1` [Compound 115, (3-(4-(aminomethyl)phenoxy)-6-hydroxybenzo[b]thiophen-2-yl)(4-fluoro-2,6-dimethylphenyl)methanone]: in assay [1], the IC50 was below 1000 nM and the “% Estrogen Receptor Remaining” value is “*** (*** denotes 41-70% Estrogen Receptor remaining)”. In addition, the IC50 in assay [2] was below 1000 nM.

Turning to `Cc1cc(F)cc(C)c1C(=O)c1sc2cc(O)ccc2c1Oc1ccc(N2CCCCC2)cc1` [Compound 101, (4-fluoro-2,6-dimethylphenyl)(6-hydroxy-3-(4-(piperidin-1-yl)phenoxy)benzo[b]thiophen-2-yl)methanone], in assay [1], the IC50 is below 1000 nM and the “% Estrogen Receptor Remaining” value is “*** (*** denotes 41-70% Estrogen Receptor remaining)”. The IC50 in assay [2] was below 1000 nM.

As to `Cc1cc(F)cc(C)c1C(=O)c1sc2cc(O)ccc2c1Oc1ccc(OCCN2CCCCC2)cc1` [Compound 106, (4-fluoro-2,6-dimethylphenyl)(6-hydroxy-3-(4-(2-(piperidin-1-yl)ethoxy)phenoxy)benzo[b]thiophen-2-yl)methanone], the “% Estrogen Receptor Remaining” value in assay [1] is on record as “*** (*** denotes 41-70% Estrogen Receptor remaining)”.

As for `Cc1cc(F)cc(C)c1C(=O)c1sc2cc(O)ccc2c1Oc1ccc(CCNC(C)C)cc1` [Compound 105, (4-fluoro-2,6-dimethylphenyl)(6-hydroxy-3-(4-(2-(isopropylamino)ethyl)phenoxy)benzo[b]thiophen-2-yl)methanone], in assay [1], the concentration for half-maximal inhibition (IC50) was below 50000 nM and the “% Estrogen Receptor Remaining” value was “**** (**** denotes 0-40% Estrogen Receptor remaining)”. In addition, the IC50 in assay [2] was below 1000 nM.

With `Cc1cc(F)cc(C)c1C(=O)c1sc2cc(O)ccc2c1-c1ccc(OCCN2CCC(CF)C2)cc1` (stereo not shown) [Compound 123, (4-fluoro-2,6-dimethylphenyl)(3-(4-(2-(3-(fluoromethyl)pyrrolidin-1-yl)ethoxy)phenyl)-6-hydroxybenzo[b]thiophen-2-yl)methanone], the results for the IC50 in assay [1] and in assay [2] were below 1000 nM and below 50000 nM, respectively. Besides, in assay [1], the “% Estrogen Receptor Remaining” value is listed as “*** (*** denotes 41-70% Estrogen Receptor remaining)”.

As for `Cc1cc(F)cc(C)c1C(=O)c1sc2cc(O)ccc2c1Oc1ccc(OCCN2CCCCCC2)cc1` [Compound 107, (3-(4-(2-(azepan-1-yl)ethoxy)phenoxy)-6-hydroxybenzo[b]thiophen-2-yl)(4-fluoro-2,6-dimethylphenyl)methanone], the “% Estrogen Receptor Remaining” value in assay [1] was “*** (*** denotes 41-70% Estrogen Receptor remaining)”.

Regarding `CCNCCc1ccc(CN(CC)c2cc(OC)ccc2[C@@H]2CCc3cc(O)ccc3C2)cc1.Cl.Cl` (stereo in doubt) [RAD- 1901, reference compound], in assay [1], the “% Estrogen Receptor Remaining” value is “**** (**** denotes 0-40% Estrogen Receptor remaining)”.

Regarding `Cc1cc(F)cc(C)c1C(=O)c1sc2cc(O)ccc2c1Oc1ccc(OCCN2CCCC2)cc1` [Compound 108, (4-fluoro-2,6-dimethylphenyl)(6-hydroxy-3-(4-(2-(pyrrolidin-1-yl)ethoxy)phenoxy)benzo[b]thiophen-2-yl)methanone], the “% Estrogen Receptor Remaining” value in assay [1] is recorded as “*** (*** denotes 41-70% Estrogen Receptor remaining)”.

(Values after patent publication US10208011B2, “Benzothiophene estrogen receptor modulators” (G1 Therapeutics, Inc., priority 2017, dated 2019).)
